Tested on: GABAA receptor (native mixed population in iCell Neurons)
Test: automated patch clamp
Assay type: cell-based, Homo sapiens

SMILES | EC50
COc1ccc(-n2nc3c4ccc(OC)cc4[nH]cc-3c2=O)cc1 [CW-04-020] | 230 ± 70 nM
C#Cc1ccc2c(c1)C(c1ccccn1)=NCc1c(C(=O)OCC)ncn1-2 [HZ166] | 1560 ± 830 nM
CN1C(=O)CN=C(c2ccccc2)c2cc(Cl)ccc21 [diazepam] | 420 ± 120 nM
